# Paper PMC11601558, “SLC6A19 inhibition facilitates urinary neutral amino acid excretion and lowers plasma phenylalanine” (JCI Insight, 2024)
# Values joined by “and” are separate entries in the source; they are usually repeats but may differ in a detail not shown here. Equal values may be shown once.
# What was measured:
# [1] = tested on: T1, SLC6A8; experiment: SLC6A8 creatine transport assay; assay type: cell-based, human; conditions: for SLC6A8 transport (Fig S2 curve point): technical replicates
# T1 construct: V5; expressed in transfected cells; host or cells: Flp-In T-Rex 293 cells (Thermo Fisher), tetracycline-induced
# Procedure: (§1) Supplementary Materials and Methods
# Flp-In T-Rex 293 cells (Thermo Fisher) were engineered to induciblyexpress either V5-tagged human SLC1A5, SLC6A8 or SLC7A5 co-expressed with myc-DDK-tagged SLC3A2. Cells expressing SLC 1A5 or SLC6A8 were maintained in either DMEM or DMEM/F12 media supplemented with 10% FBS, 100 U/mL penicillin, 100 μg/mL streptomycin, 200 μg/mL hygromycin, and 10 μg/mL blasticidin. For cells expressing SLC7A5/SLC3A2, the media was additionally supplemented with 300 μg/mL geneticin. All cell lines were maintained at 37°C and 5% CO2. For transport experiments, all cell lines were plated in poly-D-lysine-coated 96-well plates at a density of 35,000 cells/well. One day after plating, expression of SLC1A5, SLC6A8 or SLC7A5 was induced by adding tetracycline at a concentration of 1 μg/mL. Cells were induced for 24 h prior to transport assays. […]
# SLC6A8 creatine transport assay
# Following a 24 h induction with tetracycline, cells were washed with PBS before JNT -517 was added in 8-point concentration-response diluted in DMEM. 3-guanidinopropionic acid was used as a positive control (33)at a concentrationof 1 mM and 0.5% DMSO was used as a negative control. Cells were incubated in a cell culture incubator for 30 minutes at 37°C and 5% CO 2 before 15 mM D3-labeled creatine (CDN Isotopes) was added as a transport substrate. After a 15 min incubation at 37°C and 5% CO2, cells were washed once with PBS. Cells were lysed in H2O with 500 nM D5-labeled creatine (CDN isotopes) as an internal standard for 1 h at 37°C.
# Following lysis, a standard curve of dilution of D3-creatine was added to the last row of each plate. Plates were centrifuged for 5 min and supernatant was diluted 1:2 in H 2O. Sample desalting was performed on a high throughput Agilent RapidFire-365. From the analytical injection plate, approximately 40 μL of sample was desalted through an Agilent RapidFire Cartridge Graphitic Carbon Type D (G9206A) using water with 0.1% ammo nium hydroxide as the loading mobile phase A for 3000 milliseconds at a flow rate of 1.5 mL/min. The sample was then eluted from the cartridge using 80% acetonitrile containing 0.1% ammonium hydroxide for […]
# An Agilent Q -ToF 6545 was […]
# used as the analyzing mass spectrometer via electrospray ionization. Capillary voltage was set to 3 kV, with a gas temperature of 350°C. Nitrogen drying gas was applied at 12 L/min with a pressure of 40 psi, and sheath gas was set to 375°C with a flow of 12 L/min. All data were collected with a positive ion polarity and stored as centroid data. Agilent MassHunter QToF was […]
# used as the integration software for measuring area under the peak for both D3 -creatine and D5-creatine as the internal standard. A linear regression was used from a standard curve of D3 - creatine to calculate absolute concentration from peak area. […]
# Microbeta2 microplate counter (PerkinElmer). […]
# [2] = tested on: T2, human SLC1A5; experiment: SLC1A5 glutamine transport assay; assay type: cell-based; conditions: for SLC1A5 transport (Fig S2 curve point): technical replicates
# T2 construct: V5; expressed in transfected cells; host or cells: Flp-In T-Rex 293 cells (Thermo Fisher), tetracycline-induced
# Procedure: as §1
# Flp-In T-Rex 293 cells (Thermo Fisher) were engineered to induciblyexpress either V5-tagged human SLC1A5, SLC6A8 or SLC7A5 co-expressed with myc-DDK-tagged SLC3A2. Cells expressing SLC 1A5 or SLC6A8 were maintained in either DMEM or DMEM/F12 media supplemented with 10% FBS, 100 U/mL penicillin, 100 μg/mL streptomycin, 200 μg/mL hygromycin, and 10 μg/mL blasticidin. For cells expressing SLC7A5/SLC3A2, the media was additionally supplemented with 300 μg/mL geneticin. All cell lines were maintained at 37°C and 5% CO2. For transport experiments, all cell lines were plated in poly-D-lysine-coated 96-well plates at a density of 35,000 cells/well. One day after plating, expression of SLC1A5, SLC6A8 or SLC7A5 was induced by adding tetracycline at a concentration of 1 μg/mL. Cells were induced for 24 h prior to transport assays.
# SLC1A5 glutamine transport assay
# Following a 24 h induction with tetracycline, cells were washed with LCIS before JNT -517 was added in 8-point concentration-response diluted in live cell imaging solution. D -serine was used as a positive control (32)at aconcentration of 40 mM and 0.5% DMSO was used as a negative control. Cells were incubated for 20 min at room temperature and then placed on ice for an additional 5 minutes. Then, a mixture of unlabeled L-glutamine (Millipore Sigma) spiked with 4.5 μCi/mL 2,3,4- 3H-labeled L-glutamine (American Radiolabeled Chemicals) was added at a final concentration of 100 μM. After a 5 min incubation on ice, cells were washed once with ice - […]
# cold LCIS and lysed in scintillation fluid (PerkinElmer). The uptake of radioactive substrate was measured on a Microbeta2 microplate counter (PerkinElmer). […]
smiles,measurement,setting,value
NC(=O)N1CCC[C@@H](N(C(=O)NCc2ccc(OC(F)(F)F)cc2F)C2CC2)C1 [JNT-517],SLC6A8 transport (Fig S2 curve point),[1]; 0.0160037 uM,97.4 and 85.6
same,SLC6A8 transport (Fig S2 curve point),[1]; 0.048011 uM,94 and 85
same,SLC6A8 transport (Fig S2 curve point),[1]; 0.144033 uM,99.7 and 86.6
same,SLC6A8 transport (Fig S2 curve point),[1]; 0.432099 uM,93.6 and 86.7
same,SLC6A8 transport (Fig S2 curve point),[1]; 1.2963 uM,93.8 and 90.6
same,SLC6A8 transport (Fig S2 curve point),[1]; 3.88889 uM,97.6 and 89.5
same,SLC6A8 transport (Fig S2 curve point),[1]; 11.6667 uM,90.1 and 92.7
same,SLC6A8 transport (Fig S2 curve point),[1]; 35 uM,95.9 and 86.1
same,inhibition of SLC6A8,[1]; concentrations up to 35 μM,did not inhibit
same,SLC1A5 transport (Fig S2 curve point),[2]; 0.0160037 uM,77.6 and 89.2
same,SLC1A5 transport (Fig S2 curve point),[2]; 0.048011 uM,105 and 120
same,SLC1A5 transport (Fig S2 curve point),[2]; 0.144033 uM,112 and 122
same,SLC1A5 transport (Fig S2 curve point),[2]; 0.432099 uM,125 and 131
same,SLC1A5 transport (Fig S2 curve point),[2]; 1.2963 uM,122 and 116
same,SLC1A5 transport (Fig S2 curve point),[2]; 3.88889 uM,125 and 121
same,SLC1A5 transport (Fig S2 curve point),[2]; 11.6667 uM,117 and 115
same,SLC1A5 transport (Fig S2 curve point),[2]; 35 uM,110 and 117
same,inhibition of SLC1A5,[2]; concentrations up to 35 μM,did not inhibit
